The text below walks through data of article PMC8333425, “Discovery of a dual Ras and ARF6 inhibitor from a GPCR endocytosis screen” (Nature Communications, 2021).

Several values for one entry are separate records, joined by “and”; a condition that tells them apart may be missing. Equal entries are not always repeated. Entries after “also recorded” stand apart in the source; their conditions may differ.

One experiment relates to AT1R. The experiment in a line: Endosomal BRET assay of AngII-mediated AT1R internalization (AT1R-RlucII / Endo-rGFP; HTS, validation, concentration-response). The note with it: 50 μM. In kind it is cell-based, human. From the text: We performed a HT campaign in HEK293 cells using the bystander endosomal BRET sensor, which consists of a Renilla luciferase (RlucII)-tagged AT1R and an acceptor renilla GFP (rGFP) anchored to endosomes through an Endofin-FYVE (Endo-rGFP) domain[12]. AngII-mediated trafficking of AT1R to endosomes was screened against commercial libraries of ~115,000 small molecules (Fig. 1a and Supplementary Data 1). Because our assay is based on luminescence and fluorescence, we excluded 6610 compounds that quenched more than 50% of the luciferase or GFP signals. After excluding 5 AT1R antagonists, we conserved hit compounds blocking by more than 40%, as well as those potentiating by more than 100% receptor internalization. From this collection of 943 compounds, a second validation on AT1R internalization was performed using the same BRET assay, as well as on the agonist-mediated B2R internalization, this time using B2R-RlucII and Endo-rGFP. Only compounds that were revalidated on AT1R and affected B2R endocytosis were kept, which included forty hits (20 potentiators and 20 inhibitors) (Fig. 1b and Supplementary Data 2). We focused on inhibitors that were commercially available at the beginning of the project and tested their cell toxicity by microscopy, looking at cells expressing B2R tagged with YFP, which highlights cell contours and potential morphological changes, such as rounding up of cells following treatment with 50 μM of the compounds that may have indicated cell death. None of the inhibitors tested caused abnormal cell morphological changes when cells were treated with compounds as compared to DMSO-treated cells. Inhibitors were also assessed in terms of structure novelty, derivatization potential, and commercial availability of analogs (within 95–98% similarity from Tanimoto metric, Sci-Finder, https://scifinder-n.cas.org), for structure-activity relationship studies (SAR). They were scored 1–5, from best to worst. We excluded compounds with potential nucleophilic reactivity (e.g., Michael addition: compounds 7, 26, and 27), those reported to have biological activities (compounds 8, 20, 25, 30, and 35) and/or showing autofluorescence (compound 26). Compound 19 ranked high, but only had one other molecule with a similar structure available. Although other molecules could be interesting in their own rights as endocytosis inhibitors (e.g., compounds 1, 9, 11, 12, 13, 24, 31, and 37), we focused on compound 21 (Fig. 1c) because not only did it rank high in our analysis, but it was also the only compound with substantially more similar analogs commercially available at the time of these investigations. In the screen and the follow-up validation assay, 21 inhibited more than 50% AT1R internalization and more than 65% B2R internalization (Supplementary Data 2). […] Because β-arrestins are critically involved in GPCR endocytosis and trafficking in cells, we assessed 21’s effects on β-arrestins’ recruitment to AT1R and B2R at the PM using a BRET assay, as well as their trafficking into endosomes by microscopy.
The chemical library used for initial screening was from Chembridge DiverSet™ (60,000 compounds), Maybridge HitFinder™ (16,000 compounds), Maybridge (selected, 16,000 compounds), SPECS (selected, 16000 compounds), Microsource Discovery Spectrum (2000 compounds), Biomol (natural products, 500 compounds), Prestwick (commercialized products, 1120 compounds), SIGMA LopacTM (1280 compounds) and internal collection (synthesized at Université de Montréal-IRIC, ~4000 compounds). Compounds were all assigned an Université de Montréal number (UM) for internal use. Screen was performed at IRIC HTS facility. KINOMEscan™ profiling was serviced by Eurofin/DiscoverX (San Diego, USA).
HEK293SL cells were seeded at a density of 7.5 × 10^5 cells per 100-mm dish and 24 h later, transiently transfected as such. […]

The subject of experiment [1] is ERK1/2 activation by AT1R. As to the kind of experiment: Western blot of AT1R-mediated ERK1/2 phosphorylation. The format is cell-based, human. The note with it: 50 μM. As to the method:
HEK293SL cells (10^5 cells per well) were seeded in a poly-L-lysine-coated six-well plate and transiently transfected with 3 μg Flag-AT1R, HA-B2R or HA-β2AR and/or 500 ng Flag-MEK1-WT, Flag-MEK1-DD, Flag-BRAF-WT, Flag-BRAF-V600E, Flag-K-Ras-WT, Flag-K-Ras-G12V, HA-ARF6-WT, or HA-ARF6-T27N. Gαq/11 KO and βarr1/2 KO cells were seeded onto 100 mm dishes at a density of 10^6 cells per dish. Next day, cells were transfected with 3 μg AT1R alone or along with 500 ng of β-arrestin2 using PEI. After 18 h of transfection, cells were detached and re-seeded onto poly-L-lysine coated 12-well plates (~1.5–2 × 10^5cells/well) for subsequent experiments. Forty-eight hours post transfection, in a 37 °C water bath, cells were serum-starved for 30 min, pretreated with DMSO (0.1%) or compound 21/Rasarfin (50 µM or at indicated concentrations) for 30 min, then stimulated or not with the indicated ligand [AngII (1 µM), BK (1 µM), Iso (10 µM) or EGF (100 ng/ml)] at indicated times. Cells were put on ice, washed with PBS and solubilized in 2x laemmli buffer (250 mM Tris–HCl pH 6.8, 2% SDS (w/v), 10% glycerol (v/v), 0.01% bromophenol blue (w/v) and 5% β-mercaptoethanol (v/v)) by heating at 65 °C for 15 min. Lysates were resolved on 10 or 14% SDS-PAGE, transferred to nitrocellulose membranes and immunoblotted for p-ERK1/2, ERK1/2, p-Akt, Akt, HA, Myc, β-actin or FLAG. ImageLab 5.2 software was used to quantify the digital blots as fold of the phosphorylated protein over total protein, which were then normalized as indicated in the figure legends. Uncropped immunoblots are provided in the Source Data file.

In experiment [2] the test system is MDA-MB-231 cells. As to the kind of experiment: Cell proliferation assay (IncuCyte confluence), MDA-MB-231. The note with it: 10 µM. In kind it is cell-based, human. As to the method:
Cell proliferation was measured by a label-free, non-invasive cellular confluence assay using IncuCyte Live-Cell Imaging Systems (Essen Bioscience, Ann Arbor, MI, USA). MDA-MB-231 breast cancer and A549 lung carcinomas cells (1500 cells in 150 μl/well) were seeded overnight on a clear 96-well plate. Twenty-four hours later, the cells were treated with 0.1% DMSO, or different concentrations of Rasarfin (as indicated), or 10 µM of 21.4 or 21.8 for 96 h total. The plate was placed in an XL-3 incubation chamber maintained at 37 °C and the cells were photographed using a ×4 objective, every 3 h for 4 days. Cell confluence was calculated using IncuCyte S3 software (2019A) and cell proliferation was expressed as an increase in the percentage of confluence. Experiments were done in triplicate and repeated three times.

Experiment [3] relates to MDA-MB-231 cells. The experiment in a line: Cell viability assay (MTT), MDA-MB-231. The format is cell-based, human. As to conditions: for cell viability (MTT signal): S_Fig12f, listed as Comp 21.4. Here is the method: MDA-MB-231 breast cancer cells and A549 lung carcinomas (1500 cells in 150 μl/well) were seeded overnight on a clear 96-well plate. Twenty-four hours later, the cells were treated with 0.1% DMSO, or different concentrations of Rasarfin (as indicated), or 10 µM of 21.4, 21.8 (MDA-MB-231 breast cancer cells) or Doxorubicin for the indicated times at 37 °C. At each time point, 10 μl of 5 mg/ml MTT was added to each well and the plates were incubated for an additional 4 h at 37 °C. The absorbance at 590 nm was measured by plate reader. Experiments were done in triplicate and repeated three times.

Experiment [4] deals with H-Ras (Homo sapiens, UniProt P01112). As to the kind of experiment: In vitro mant-GTP exchange assay, purified H-Ras with purified SOS1. In kind it is biochemical. On the set-up: the cDNA of H-Ras (full length) was obtained by RT-PCR of HEK293SL; GST (N); host or cells: E. coli BL21. The note with it: 50 μM. As to the method: Ras activity was assessed in a 384-well black bottom plate using the mant-GTP exchange factor assay that measures the uptake of the fluorescent nucleotide analog N-methylanthraniloyl-GTP (mant-GTP) into GTPases. For Ras activation, 2X exchange buffer, 1.66 μg of purified pGEX-6P-1-H-Ras or pGEX-6P-1-K-Ras-WT or pGEX-6P-1-K-Ras-Y32A were added per well in presence of DMSO, different concentrations of Rasarfin (as indicated) or 50 µM of compounds 21.4, 21.7, or 21.8. Using the Infinite 200 Pro plate reader (Tecan) with filters set at 360 nm and 440 nm for detecting the excitation and emissions, respectively, and temperature set at 20 °C, 5 readings were recorded every 5 s before the addition of either H2O, 40 mM EDTA or 0.66 μg purified SOS1. The fluorescence of mant-GTP uptake was measured every 30 sec for 30 min and quantified as the delta relative fluorescence units (RFU), which was calculated as the RFU post-addition minus the 5 averaged RFU pre-addition, per condition.
Chain of H-Ras (Homo sapiens, UniProt P01112) (P01112 whole entry): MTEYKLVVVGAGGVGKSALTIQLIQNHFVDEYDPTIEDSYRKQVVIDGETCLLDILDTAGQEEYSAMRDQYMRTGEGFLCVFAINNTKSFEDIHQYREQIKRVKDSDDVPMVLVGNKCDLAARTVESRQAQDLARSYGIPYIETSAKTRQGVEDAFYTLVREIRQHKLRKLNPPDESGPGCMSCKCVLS

Another experiment concerns Ras. Further details: method as in PMID 22431598. The note with it: cited from earlier work.
For experiment [5], the system named is H-Ras. Further details: method as in PMID 27265506. As to conditions: cited from earlier work.

Turning to `CC(C)C(=O)N1CCN(c2ccc(NC(=O)c3cc4ccccc4o3)cc2)CC1` [Compound 21.4], the “inhibition of AT1R internalization into endosomes (Fig. 8a)” value in the experiment on AT1R is “did not inhibit AT1R internalization”. Moreover, the “inhibition of AT1R-mediated ERK1/2 (MAPK) activation (Fig. 8b)” value in experiment [1] is “lacks Ras and MAPK inhibitory activities”. Moreover, the “MDA-MB-231 cell proliferation (confluency)” value in the experiment with MDA-MB-231 cells [2] is “only 21.8, which efficiently inhibits MAPK as well as Rasarfin, inhibited cell proliferation”. For the same molecule, the “metabolic activity of MDA-MB-231 cells (MTT)” value with MDA-MB-231 cells [3] (10 µM) is on record as “moderately decreasing the metabolic activity of cancer cells”. The “cell viability (MTT signal)” value in the experiment with MDA-MB-231 cells [3] (24h) is 0.2634 and 0.244 and 0.2; with MDA-MB-231 cells [3] (48h), 0.339 and 0.3215 and 0.2045. The “Ras exchange activity, mant-GTP loading into H-Ras with SOS1 (Fig. 8c)” value at H-Ras [4] was “lacks Ras and MAPK inhibitory activities; also recorded: had no effect”.

With `CCC(=O)N1CCN(c2ccc(NC(=O)c3cccs3)cc2Cl)CC1` [Compound 21.7], the “inhibition of AT1R internalization into endosomes (Fig. 8a)” value in the experiment on AT1R was “loss of compounds’ efficacy to inhibit AT1R internalization”. Besides, the “inhibition of AT1R-mediated ERK1/2 (MAPK) activation (Fig. 8b)” value in experiment [1] is “lost their ability to inhibit MAPK”. On H-Ras [4], the “Ras exchange activity, mant-GTP loading into H-Ras with SOS1 (Fig. 8c)” value is “had no effect”.

For the molecule `Cc1[nH]c2cc(Cl)cc(Cl)c2c1CCN` [DCAI, 4,6-dichloro-2-methyl-3-aminoethyl-indole], in the experiment on Ras, the “SOS binding to Ras and nucleotide exchange” value was “blocks SOS binding to Ras but only inhibits the nucleotide exchange catalyzed by SOS”.

On to NAV-2729, for which the “block of H-Ras” value with H-Ras [5] is on record as “inefficacious to block H-Ras”.
